Results on 22 compounds are retold here after patent US20250206722A1, “SMALL MOLECULE INHIBITORS OF TEA DOMAIN FAMILY MEMBERS” (The Scripps Research Institute, priority 2022, published 2025).

Common to all, as to assay type: cell-based
The test system of assay [1] is transcriptional activity of TEADs. Description: TEAD reporter assay (MCF7 TEAD-LUC reporter cells). Particulars: Homo sapiens, 24 hours, BrightGlo luminescence. The method, boiled down:
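Luminescence (BrightGlo) was read after 24 h of compound treatment at 37 °C, 5 % CO2. Cells had been seeded at 5,000 per well in DMEM with 10 % FBS and insulin and rested 24 h first. Dosing used 20 points, 1:2 dilution from 20 μM final, triplicates.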
Background: In a reporter assay the amount or activity of a reporter protein is the signal.

For the next assay, the system named is IMR32 cells. In words: IMR32 cytotoxicity assay. To be noted: Homo sapiens, IMR-32, 72 h, 3 days, Cell TiterGlo. As to the method:
IMR32 cells were obtained from American Type Culture Collection (ATCC, CCL-127) and cultured in DMEM (Corning, 10-013-CV) supplemented with 10% fetal bovine serum (Gibco, 10438-026) and 1% penicillin-streptomycin (Gibco, 15070063). Cells were trypsinized, resuspended in growth medium, and diluted to a concentrated of 20,000 cells/mL. 1,000 cells, 50 μL of cell suspension, per well were then plated in a white 384-well plate (Corning) and incubated at 37° C., 5% CO2. After 24 hours incubation, 100 nL of test compounds in DMSO, 20-point 1:2 dilution starting from 20 μM (final concentration) in triplicate, were transferred to each well using an Agilent Bravo instrument outfitted with a pintool head. Cells were incubated at 37° C., 5% CO2 for 3 days followed by the addition of 30 μL of Cell TiterGlo (Promega; diluted 1:6 in water) to each well and luminescence values recorded using an EnVision plate reader. […]
(Cellular ATP, detected with luciferase, serves as a proxy for viable cell number.)

Assay [2] deals with NCI-H226 cells. In words: NCI-H226 proliferation assay (in house). To be noted: Homo sapiens, 120 h, 5 days, Cell TiterGlo, 20-point 1:2 dilution from 20 μM. The method, boiled down:
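Viability by CellTiter-Glo luminescence after 5-day compound exposure at 37 °C, 5% CO2. Compounds added 24 h post-seeding (500 cells/well, RPMI 1640 with 10% FBS) as 20-point, 2-fold series from 20 μM final, triplicate wells.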

The subject of assay [3] is NCI-H226 cells. In words: NCI-H226 proliferation assay (Wuxi AppTec). To be noted: Homo sapiens, 168 h, 7 days, CellTiter-Glo, top dose 10, 3-fold dilution, 9 doses. As to the method:
[…] Proliferation Assay (From Wuxi AppTec CO.):
Day −1: Seeding cells • (1) Equilibrate cell culture medium to 37° C. • (2) Remove and discard the culture medium. • (3) Briefly rinse the cell layer with PBS to remove all traces of serum that contains […]. • (4) Add 2-3 mL of Trypsin-EDTA solution to flask and observe cells under an inverted microscope until cell layer is dispersed. • (5) Add 6-8 mL of growth medium to terminate the digestion of Trypsin/EDTA. • (6) Centrifuge the mixture (Trypsin EDTA and the growth medium) at 1000 rpm for 5 mins. • (7) Discard the supernatant, suspend the cell precipitation with the fresh growth medium, then take 1 mL the cell suspension to count cells with Vi-cell XR cell viability analyzer. • (8) Adjust the cell density to 500 cells/well for 384-well plates. • (9) Add 50 µL/well volume cell suspension to the assay plate. • (10) Add […] media to the control columns. • (11) Incubate the plate at 37° C., 5% CO2 for overnight. Day 0: Compounds treatment • (1) Add cpds to each well by Tecan HP D300E. The top dose is […], 3-fold dilution and 9 doses. DMSO final concentration will be normalized to 0.2%. • (2) Incubate the assay plate at 37° C., 5% CO2 for 7 days. Day 7: Plate read • (1) Equilibrate the assay plate to the room temperature for nearly 30 minutes. • (2) Add […] CellTiter-Glo reagent to each well and shake the plate for 1 min, incubate 10 min and keep them from light. • (3) Detect the plate by EnVision. Data analysis:
Max: Average of the DMSO group Min: Average of medium group.

`CC(C)(C#N)N1CCN(c2nccnc2Nc2ccc(C(F)(F)F)cc2)CC1` [Example 176, 2-methyl-2-(4-(3-((4-(trifluoromethyl)phenyl)amino)pyrazin-2-yl)piperazin-1-yl)propanenitrile]: the IC50 was 2500 nM in assay [1], over 10000 nM in the assay on IMR32 cells and 9.95 µM with NCI-H226 cells [2].
For `C=CC(=O)N1CC2CC1CN2c1nccnc1Nc1ccc(C(F)(F)F)cc1` (stereo not drawn) [Example 11, 1-(5-(3-((4-(trifluoromethyl)phenyl)amino)pyrazin-2-yl)-2,5-diazabicyclo[2.2.1]heptan-2-yl)prop-2-en-1-one], in that order: 43.5 nM, 1410 nM and 0.483 µM.
`C=CC(=O)N1CCN(c2nccnc2Nc2ccc(C(F)(F)F)cc2)C[C@@H]1CO` [Example 15, (R)-1-(2-(hydroxymethyl)-4-(3-((4-(trifluoromethyl)phenyl)amino)pyrazin-2-yl)piperazin-1-yl)prop-2-en-1-one]: the IC50 in assay [1] was 5000 nM; with IMR32 cells, 10000 nM; in the assay on NCI-H226 cells [2], over 20 µM.
For `C=CC(=O)N1CCC(Nc2nccnc2Nc2ccc(C(F)(F)F)cc2)C1` (stereo not drawn) [Example 8, 1-(3-((3-((4-(trifluoromethyl)phenyl)amino)pyrazin-2-yl)amino)pyrrolidin-1-yl)prop-2-en-1-one], in that order: 49.3 nM, over 5000 nM and 8.48 µM.
For the compound `C=CC(=O)N1CCN(c2nccnc2-c2cccc(C(F)(F)F)c2)CC1` [Example 29, 1-(4-(3-(3-(trifluoromethyl)phenyl)pyrazin-2-yl)piperazin-1-yl)prop-2-en-1-one], the half-maximal inhibitory concentration (IC50) is over 20000 nM in assay [1], over 20000 nM in the assay with IMR32 cells and over 20 µM in the assay on NCI-H226 cells [2].
For the compound `C=CC(=O)NC1CC2(C1)CN(c1nccnc1Nc1ccc(C(F)(F)F)cc1)C2` [Example 6, N-(2-(3-((4-(trifluoromethyl)phenyl)amino)pyrazin-2-yl)-2-azaspiro[3.3]heptan-6-yl)acrylamide], the IC50 is over 20000 nM in assay [1], over 20000 nM in the assay with IMR32 cells and over 10 µM in the assay on NCI-H226 cells [2].
In the case of `CN(C)C/C=C/C(=O)N1CCN(c2nccnc2Nc2ccc(C(F)(F)F)cc2)CC1` [Example 167, 4-(dimethylamino)-1-(4-(3-((4-(trifluoromethyl)phenyl)amino)pyrazin-2-yl)piperazin-1-yl)but-2-en-1-one], the IC50 in assay [1] was found to be 1000 nM; in the assay on IMR32 cells, 10000 nM; in the assay with NCI-H226 cells [2] it was 0.108 µM.
With `C=CC(=O)N1CCN(c2nccnc2Nc2ccc(C(F)(F)F)cc2)C[C@@H]1C` [Example 14, (S)-1-(2-methyl-4-(3-((4-(trifluoromethyl)phenyl)amino)pyrazin-2-yl)piperazin-1-yl)prop-2-en-1-one], the IC50 was 2.94 nM in assay [1], over 10000 nM in the assay on IMR32 cells and 0.0246 µM with NCI-H226 cells [2].
On to `C=CC(=O)N1CCN(c2nccnc2NC2CCC(F)(F)CC2)CC1` [Example 66, 1-(4-(3-((4,4-difluorocyclohexyl)amino)pyrazin-2-yl)piperazin-1-yl)prop-2-en-1-one], for which the IC50 in assay [1] was 19.2 nM; with IMR32 cells, over 20000 nM; with NCI-H226 cells [2], 0.347 µM.
The like results for `C=CC(=O)NCCOc1nccnc1Nc1ccc(C(F)(F)F)cc1` [Example 192, N-(2-((3-((4-(trifluoromethyl)phenyl)amino)pyrazin-2-yl)oxy)ethyl)acrylamide] were, in that order, 17.9 nM, over 20000 nM and 1.78 µM.
Take `CC#CC(=O)N1CCN(c2nccnc2Nc2ccc(C(F)(F)F)cc2)CC1` [Example 174, 1-(4-(3-((4-(trifluoromethyl)phenyl)amino)pyrazin-2-yl)piperazin-1-yl)but-2-yn-1-one]: the values for the IC50 (in assay [1]; in the assay on IMR32 cells; in the assay with NCI-H226 cells [2]) were over 20000 nM, over 10000 nM and over 20 µM, respectively.
Turning to `C=CC(=O)N[C@H]1C[C@@H](Nc2nccnc2Nc2ccc(C(F)(F)F)cc2)C1` [Example 5, N-((ls,3s)-3-((3-((4-(trifluoromethyl)phenyl)amino)pyrazin-2-yl)amino)cyclobutyl) acrylamide], the values for the IC50 (in assay [1]; in the assay with IMR32 cells; in the assay with NCI-H226 cells [2]) were 408 nM, over 20000 nM and 13.7 µM, respectively.
For `C=CC(=O)NCC1CCCN(c2nccnc2Nc2ccc(C(F)(F)F)cc2)C1` (stereo not drawn) [Example 10, N-((1-(3-((4-(trifluoromethyl)phenyl)amino)pyrazin-2-yl)piperidin-3-yl)methyl)acrylamide], in that order: 11400 nM, 10000 nM and over 14 µM.
On to `O=C(CCl)N1CCN(c2nccnc2Nc2ccc(C(F)(F)F)cc2)CC1` [Example 170, 2-chloro-1-(4-(3-((4-(trifluoromethyl)phenyl)amino)pyrazin-2-yl)piperazin-1-yl)ethan-1-one], for which the results for the IC50 (in assay [1]; with IMR32 cells; in the assay with NCI-H226 cells [2]) were 267 nM, 760 nM and 0.173 µM, respectively.
For `C=CC(=O)NC1CCN(c2nccnc2Nc2ccc(C(F)(F)F)cc2)C1` (stereo not drawn) [Example 7, N-(1-(3-((4-(trifluoromethyl)phenyl)amino)pyrazin-2-yl)pyrrolidin-3-yl)acrylamide], in that order: 28.6 nM, over 10000 nM and 0.195 µM.
For `C=C(F)C(=O)N1CC=C(c2nccnc2Oc2cnc(C(F)(F)F)nc2)CC1` [Example 90, 2-fluoro-1-(4-(3-((2-(trifluoromethyl)pyrimidin-5-yl)oxy)pyrazin-2-yl)-3,6-dihydropyridin-1(2H)-yl)prop-2-en-1-one], the IC50 turned out to be 0.031 µM in the assay with NCI-H226 cells [3], 5.9 nM in assay [1] and 0.033 µM with NCI-H226 cells [2].
`C=CC(=O)N1CCC(n2nc(C)cc2C(=O)c2ccc(C(F)(F)F)cc2)CC1` [Example 166, 1-(4-(3-methyl-5-(4-(trifluoromethyl)benzoyl)-1H-pyrazol-1-yl)piperidin-1-yl)prop-2-en-1-one]: the IC50 in the assay with NCI-H226 cells [3] was 0.015 µM; in assay [1], 0.6 nM; in the assay with NCI-H226 cells [2], 0.02 µM.
For `C=CC(=O)N1CC=C(c2nccnc2Oc2ccc(C(F)(F)F)cn2)CC1` [Example 74, 1-(4-(3-((5-(trifluoromethyl)pyridin-2-yl)oxy)pyrazin-2-yl)-3,6-dihydropyridin-1(2H)-yl)prop-2-en-1-one], in that order: 0.121 µM, 2.4 nM and 0.449 µM.
Turning to `C=C(F)C(=O)N1CC=C(c2cccnc2Oc2ccc(C(F)(F)F)nc2)CC1` [Example 154, 2-fluoro-1-(2-((6-(trifluoromethyl)pyridin-3-yl)oxy)-3′,6′-dihydro-[3,4′-bipyridin]-1′(2′H)-yl)prop-2-en-1-one], the IC50 was 0.02 µM in the assay on NCI-H226 cells [3], 2.9 nM in assay [1] and 0.05 µM in the assay on NCI-H226 cells [2].
For `C=CC(=O)N1CCN(c2nccnc2Nc2cnc(C(F)(F)F)c(F)c2)CC1` [Example 50, 1-(4-(3-((5-fluoro-6-(trifluoromethyl)pyridin-3-yl)amino)pyrazin-2-yl)piperazin-1-yl)prop-2-en-1-one], in that order: 0.026 µM, 3.1 nM and 0.034 µM.
The like results for `C=CC(=O)N1CCN(c2ccnnc2Nc2ccc(C(F)(F)F)cc2)CC1` [Example 119, 1-(4-(3-((4-(trifluoromethyl)phenyl)amino)pyridazin-4-yl)piperazin-1-yl)prop-2-en-1-one] were, in that order, 0.042 µM, 3.2 nM and 0.012 µM.
On to `C=CC(=O)N1CCC(c2cncnc2Oc2ccc(C(F)(F)F)nc2)CC1` [Example 126, 1-(4-(4-((6-(trifluoromethyl)pyridin-3-yl)oxy)pyrimidin-5-yl)piperidin-1-yl)prop-2-en-1-one], for which the IC50 in the assay on NCI-H226 cells [3] was found to be 0.339 µM; in assay [1], 19.1 nM; with NCI-H226 cells [2], 0.364 µM.

As usually defined, the IC50 is the concentration needed to halve the response being measured. Read a low IC50 as inhibition by little substance.
